Results: US7238469B2, “Carbon monoxide improves outcomes in tissue and organ transplants and suppresses apoptosis” (priority 2001, dated 2007)

Experiments:
[1] = tested on: mouse hearts transplanted into rats; test: Histomorphometric analysis of infarcted area in transplanted hearts; format: in vivo, BALB/c mouse hearts, Lewis rats; settings: 3 days after transplantation; SnPPIX treated rats that received exogenous CO
Description: Grafts were harvested 3 days after transplantation, […], and serially sectioned (5 îm) in toto from the apex to the base. Ten sections were placed per slide in a total of about 20–25 slides. Every fifth slide was stained with hematoxylin and eosin (H&E) for histomorphometric analysis. Two images per slide were captured by using a Nikon Eclipse E600O microscope (Nikon, Melville, N.Y.) connected to a Hitachi 3-CCD Color Camera (model HV-C20; Hitachi, Tokyo, Japan) and to a Power MacintoshO 7300/200 computer (Apple Computer, Cupertino, Calif.) equipped with IPLab Spectrum digital imaging software (Signal Analytics Corporation, Vienna, Va.). About 50 images were captured from each transplanted heart from two to three animals per group. Images were analyzed by manual segmentation, tracing the infarcted and noninfarcted areas from the right and left ventricles in each section. Areas corresponding to infarcted and noninfarcted tissue were calculated by digital imaging software as number of pixels corresponding to those areas. Infarcted and noninfarcted areas were then calculated as percentage of total area. Pooled data for each group, expressed as area in pixels or as percentage of infarction, was analyzed by using ANOVA. […] Results are expressed as mean=SD. […]

[2] = tested on: Brown Norway aortas transplanted into Lewis rats; test: Aortic transplant model (transplant-associated arteriosclerosis); format: in vivo, rat; settings: allogeneic recipients exposed to CO 250 ppm for 56 days
Procedure: Aortic transplantation was carried out done as described elsewhere (Plissonnier et al., Transplantation 60:414–424, 1995). […] After additional left thoracotomy, three or four pairs of the inter-costal arteries were ligated using 7-0 nylon suture (Keisei Medical Industrial Co., LTD, Tokyo, Japan), and 2 cm of the descending aorta was harvested. The graft was inserted between the renal arteries and the aortic bifurcation by standard microsurgery technique using 9-0 Nylon sutures (Ethilon™, Ethicon, Inc, Somerville, N.J.). The native abdominal aorta was left after both edges were ligated.
CO at a concentration of 1% (10,000 parts per million; ppm) in compressed air was mixed with balanced air (21% oxygen) as described previously (Otterbein et al., Am J Physiol 276(4 Pt 1):L688–L694, 1999). For the transplant model, graft donors were placed in the CO chamber two days before transplantation. Recipients were placed in the chamber immediately following transplantation and kept there 56 days. CO concentration was maintained at 250 ppm at all times.
Adult male (250–350 g) Brown Norway rats (RT1 were used as aortic graft donors and adult male (250–350 g) Lewis rats (RT1) as recipients (Charles River Lab. Wilmington, Mass.). Male C57BL/6, p21^−/− and p53^−/− null mice were purchased from Jackson Laboratory (Bar Harbor, Me.). The MKK3^(−/−) null mice were generated as previously described (Lu et al., EMBO. J. 18:1845–1857, 1999). Mice were allowed to acclimate for one week with rodent chow and water ad libitum.
Brown Norway aortas were transplanted into Brown Norway rats (syngeneic), untreated Lewis rats (allogeneic), or Lewis rats exposed to carbon monoxide (250 ppm; allogeneic with carbon monoxide). Samples were harvested 56 days after transplantation and stained by a modified elastic tissue-masson trichrome, or by eosin hematoxylin. Brown Norway aortic segments transplanted into Lewis rats developed arteriosclerotic lesions that are consistent with those associated with chronic graft rejection (data not shown). […]

p38 MAPK = target: T1, p38 MAPK (Bos taurus, UniProt A6QLR9); format: cell-based, bovine; settings: BAECs; CO 10,000 ppm
T1 construct: endogenous in cells; host or cells: bovine aortic endothelial cells (BAEC)

HO-1 = test: Western blot of HO-1 expression in cultured endothelial cells; format: cell-based, mouse; settings: data not shown
Procedure: Endothelial cells were washed in PBS (pH 7.2), harvested by scraping, and lysed in Laemmli buffer. Electrophoresis was conducted under denaturing conditions with 10% polyacrylamide gels. Proteins were transferred onto a polyvinyldifluoridine membrane (immobilon P; Millipore, Bedford, Mass.) by electroblotting and detected with rabbit polyclonal Abs directed against human HO-1 or HO-2 (StressGen, Victoria, Canada) or é-tubulin (Boehringer Mannheim, Mannheim, Germany). Proteins were visualized by using HRP-conjugated donkey anti-rabbit IgG or goat anti-mouse IgG (Pierce) and the ECL assay (Amersham Life Science, Arlington Heights, Ill.) according to manufacturer's instructions.

T1 sequence (A6QLR9 1-360): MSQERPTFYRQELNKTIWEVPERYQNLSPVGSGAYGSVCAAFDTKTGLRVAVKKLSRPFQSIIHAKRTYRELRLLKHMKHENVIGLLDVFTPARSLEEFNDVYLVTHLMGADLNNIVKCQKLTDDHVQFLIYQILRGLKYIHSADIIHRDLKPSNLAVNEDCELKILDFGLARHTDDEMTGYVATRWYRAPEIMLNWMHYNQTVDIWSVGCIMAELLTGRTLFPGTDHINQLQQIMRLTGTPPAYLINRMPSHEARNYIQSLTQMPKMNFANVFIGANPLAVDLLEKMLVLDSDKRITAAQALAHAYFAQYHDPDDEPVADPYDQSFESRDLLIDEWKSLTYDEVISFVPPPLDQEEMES

| Compound | infarction of the left ventricle [1] | infarction of the right ventricle [1] | accumulation of leukocytes into the adventitia [2] | intimal hyperplasia in aortic grafts [2] | loss of medial SMC [2] | p38 MAPK activation (p38 MAPK) | expression of HO-1 in cultured endothelial cells (HO-1) |
| --- | --- | --- | --- | --- | --- | --- | --- |
| [C-]#[O+] [CO, carbon monoxide] | 1.8±3.4% | 8.4±5.3% | inhibited | inhibited | no significant effect on loss of medial SMC | activated p38 MAPK even in the absence of TNF-α | – |
| C=Cc1c2[n-]c(c1C)/C=c1\[n-]/c(c(C)c1C=C)=C\c1[n-]c(c(CCC(=O)O)c1C)C=c1[n-]/c(c(C)c1CCC(=O)O)=C\2.[Sn+4] [SnPPIX, tin protoporphyrin IX] | – | – | – | – | – | – | up-regulated the expression of HO-1 |
